Experimental data from EP0904079B1, “ANTIDIABETIC AGENTS” (MERCK & CO., INC., priority 1996, dated 1997).

Target: T1, Human PPARδ (Homo sapiens, UniProt Q03181)
T1 construct: The full length human cDNA for PPARγ2 and PPARδ were subcloned into the PGEX-2T and PGEX-KT, respectively, expression vector; made in house; host or cells: E. coli
T1 sequence (Q03181 1-441): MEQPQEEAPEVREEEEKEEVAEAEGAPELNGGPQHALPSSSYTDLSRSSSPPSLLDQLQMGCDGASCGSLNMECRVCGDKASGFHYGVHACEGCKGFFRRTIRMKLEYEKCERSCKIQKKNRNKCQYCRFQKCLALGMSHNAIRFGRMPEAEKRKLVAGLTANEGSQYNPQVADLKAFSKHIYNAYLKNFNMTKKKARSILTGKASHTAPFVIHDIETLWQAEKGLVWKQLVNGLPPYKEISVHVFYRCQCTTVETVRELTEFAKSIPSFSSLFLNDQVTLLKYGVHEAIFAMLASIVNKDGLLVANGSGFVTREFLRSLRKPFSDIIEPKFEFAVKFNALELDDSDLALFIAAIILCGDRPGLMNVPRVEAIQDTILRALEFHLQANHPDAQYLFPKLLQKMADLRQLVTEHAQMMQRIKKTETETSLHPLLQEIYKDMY
Assay: [3H2]Example 11 displacement assay (PPAR receptor binding assay)
Method: Human PPARγ2 and PPARδ, independently, were prepared as gst-fusion proteins in E. coli. The full length human cDNA for PPARγ2 and PPARδ were subcloned into the PGEX-2T and PGEX-KT, respectively, expression vector (Pharmacia). E. coli containing the plasmid were grown, induced, and then harvested by centrifugation. The resuspended pellet was broken in a French press and debris was removed by centrifugation at 12,000Xg. Receptors were purified from the supernatant by affinity chromatography on glutathione sepharose. After application to the column, and 1 wash, receptor was eluted with glutathione. Glycerol was added to stabilize the receptor and aliquots were frozen at -80 °C for later use.
Assays were incubated for ∼ 16 h at 4 °C in a final volume of 300 µl. Unbound ligand was removed by addition of 200 µl dextran/gelatin-coated charcoal, on ice, for ∼10 minutes. After centrifugation at 3000 rpm for 10 min at 4 °C, 200 µl of the supernatant fraction was counted in a liquid scintillation counter.

- Kd: 1 nM
Structure (SMILES): CCCc1c(OCCCSc2ccc(CC(=O)O)cc2Cl)ccc2oc3ccccc3c12 [Example 11, 3-Chloro-4-(1-propyl-dibenzofuranyl-2-oxy-propylthio)-phenylacetic acid]
